{"source": "patent US20110244057A1", "about": "“COMBINATION THERAPIES WITH TOPIRAMATE FOR SEIZURES, RESTLESS LEGS SYNDROME, AND OTHER NEUROLOGICAL CONDITIONS” (priority 2008, published 2011)", "origin": "cited, not measured here", "key": {"[1]": {"conditions": "doses of 100 mg/day and 200 mg/day; Romigi et al., J. Neurology, 2007"}, "kindled seizures": {"test_system": "kindled seizures", "conditions": "rats; Wauquier and Zhou, Epilepsy Res. 24:73-77, 1996"}}}
{"smiles": "CC1(C)O[C@@H]2[C@@H](CO[C@@]3(COS(N)(=O)=O)OC(C)(C)O[C@@H]23)O1", "note": "[topiramate, 2,3:4,5-bis-O-(1-methylethyldiene)-β-D-fructopyranose sulfamate]", "values": [{"measurement": "induction of Restless Leg Syndrome (RLS)", "setting": "[1]", "value": "cause RLS"}, {"measurement": "effect on kindled seizures", "setting": "kindled seizures", "value": "blocks kindled seizures"}]}
